Test results: patent publication US7569605B2, “Methods of treating central nervous system disorders with a low dose combination of escitalopram and bupropion” (Forest Laboratories Holdings Limited, priority 2005, dated 2009)
Values joined by “and” are separate entries in the source; they are usually repeats but may differ in a detail not shown here. Equal values may be shown once. Marks after values point to notes of the source that are not given here.

Assays:
[1] = test system: patients with major depressive disorder (MDD); assay: Arizona Sexual Experiences Scale (ASEX) in the fixed dose comparison study; format: in vivo, human
Method: The study consists of a one-week single-blind placebo lead-in period followed by an 8 week double-blind treatment period. Approximately 135 patients are randomized to each of four treatment groups (placebo, escitalopram oxalate 4 mg, bupropion hydrochloride 150 mg, or escitalopram oxalate 4 mg/bupropion hydrochloride 150 mg), for a total of […].
A randomized, double-blind, fixed-dose, multicenter, parallel-group study is conducted in outpatients with MDD. Patients who meet eligibility criteria at Screening (Visit 1) enter a one-week, single-blind, lead-in period of placebo treatment. Patients who complete the lead-in period and continue to meet all entry criteria at Baseline (Visit 2) are randomly assigned to 8 weeks of double-blind treatment with either placebo, escitalopram 4 mg, bupropion XL 150 mg, or escitalopram 4 mg/bupropion XL 150 mg combination. Assignment to a treatment group is according to a computer-generated randomization schedule.
The Arizona Sexual Experiences Scale (ASEX) is completed at Visits 2 and 7, or early termination. Different versions are used for males and females. This 5 item patient-rated scale assesses sexual experiences with respect to libido, psychological and physiological arousal, ability to attain orgasm, and satisfaction with orgasm. Each item is scored on a 6 point scale with higher numbers indicating greater sexual dysfunction.

[2] = test system: patients with major depressive disorder (MDD); assay: double-blind fixed dose comparison in major depressive disorder: efficacy (MADRS, HAMD, CGI, HAMA, QOL); format: in vivo, human; design: key to QOL: LS mean change from baseline to endpoint (LOCF): aggregated 5-point item scores; higher = greater enjoyment/satisfaction; HAMD17: LS mean change from baseline to endpoint (LOCF): scale not given here; conditions: escitalopram 4 mg, bupropion XL 150 mg, 8 weeks; for CGI % response: CGI-I response = 1 or 2; for HAMD17 % remission: HAMD17 remission <=7; for HAMD24 % response: HAMD24 response >=50% improvement; for MADRS % remission: MADRS remission <=12; for MADRS % response: MADRS response >=50% improvement; for CGI-I: LS mean (LOCF) / CGI-S: LS mean change from baseline to endpoint (LOCF) / HAMA: LS mean change from baseline to endpoint (LOCF) / HAMD17: LS mean change from baseline to endpoint (LOCF) / HAMD24 2° parameter, validated: LS mean change from baseline to endpoint (LOCF) / HAMD cognit disturb: LS mean change from baseline to endpoint (LOCF) / HAMD psychomotor: LS mean change from baseline to endpoint (LOCF) / MADRS 1° parameter, validated: LS mean change from baseline to endpoint (LOCF) / QOL: LS mean change from baseline to endpoint (LOCF): vs placebo
Method: This clinical study is conducted as a double-blind, randomized, fixed-dose, multicenter, parallel-group study in outpatients as shown in the Figure below: […] Approximately 135 patients are randomized to each of four treatment groups (placebo, escitalopram oxalate 4 mg, bupropion hydrochloride 150 mg, or escitalopram oxalate 4 mg/bupropion hydrochloride 150 mg), for a total of […]. A randomized, double-blind, fixed-dose, multicenter, parallel-group study is conducted in outpatients with MDD. […] Assignment to a treatment group is according to a computer-generated randomization schedule. […] The following primary efficacy assessments are performed at patient visits: […] The following secondary efficacy assessments are performed at patient visits: […] The following additional efficacy assessments are performed at patient visits: […] This scale rates the severity of the patient's current state of mental illness based on the investigator's clinical opinion with regard to a patient population with MDD. The patient is rated on a scale of 1 to 7 with 1 being normal and 7 being a patient who was among the most extremely ill. […] Based on the investigator's clinical opinion, this scale rates the total improvement or worsening in the patient's mental illness from his/her baseline assessment, regardless of whether or not the investigator considered it due to drug treatment. The patient is rated on a scale from 1 to 7 with 1 being very much improved and 7 being very much worse. […] Each item is scored on a 5 point scale with 0 reflecting no symptoms and 4 reflecting symptoms of maximum severity. […] Five-point item scores are aggregated, with higher scores indicative of greater enjoyment or satisfaction in each domain. Dosing: For the single-blind lead-in period, patients are supplied with placebo capsules. For the double-blind period, identical appearing capsules are supplied which contain placebo, escitalopram 4 mg, or bupropion extended-release 150 mg. […] All study medication is administered as a single daily dose throughout the study, preferably at the same time each evening starting on the day the medication is dispensed to the patient. Dosing is subsequently be switched to morning, if preferred. […] Patients are instructed to return all unused medication at each study visit. […] Patients are instructed to take two capsules daily as a single dose beginning on the day study medication is dispensed. […] Patients are assigned the lowest randomization number available at the site. Patients are instructed to take two capsules daily as a single dose beginning on the day study medication is dispensed. In accordance with their assigned treatment group, patients receive placebo, 4 mg escitalopram, 150 mg bupropion, or 4 mg escitalopram and 150 mg bupropion per day. […] Patients are instructed to continue taking two capsules daily as a single dose. In accordance with their assigned treatment group, patients receive placebo, 4 mg escitalopram, 150 bupropion, or 4 mg escitalopram and 150 mg bupropion per day. Efficacy: All efficacy analyses are based on the Intent-to-Treat (ITT) Population. […] All efficacy analyses are performed using both the Last Observation Carried Forward (LOCF) and the Observed Cases (OC) approach. In these analyses, the last observed value before a post-baseline missing value are carried forward to impute the missing value. […] For OC analyses, only observed values are used. […] The primary analysis is performed using the LOCF approach. Three primary comparisons between the escitalopram/bupropion combination group relative to each of the three other groups (placebo, escitalopram, or bupropion) are performed using an ANCOVA model with the treatment group and center as factors and the baseline MADRS score as a covariate. […] The analyses are carried out using a similar statistical model as used for the primary efficacy parameter. […]

SMILES	ASEX Change in total scores (improvement = reduction in score) ([1]; Females)	ASEX Change in total scores (improvement = reduction in score) ([1]; Males)	CGI % response [2]	HAMD17 % remission [2]	HAMD24 % response [2]	MADRS % remission [2]	MADRS % response [2]	CGI-I: LS mean (LOCF) [2]	CGI-S: LS mean change from baseline to endpoint (LOCF) [2]	HAMA: LS mean change from baseline to endpoint (LOCF) [2]	HAMD17: LS mean change from baseline to endpoint (LOCF) [2]	HAMD24 2° parameter, validated: LS mean change from baseline to endpoint (LOCF) [2]	HAMD cognit disturb: LS mean change from baseline to endpoint (LOCF) [2]	HAMD psychomotor: LS mean change from baseline to endpoint (LOCF) [2]	MADRS 1° parameter, validated: LS mean change from baseline to endpoint (LOCF) [2]	QOL: LS mean change from baseline to endpoint (LOCF) [2]
CN(C)CCC[C@@]1(c2ccc(F)cc2)OCc2cc(C#N)ccc21 [escitalopram, 1-[3-(dimethyl-amino)propyl]-1-(p-fluorophenyl)-5-phthalancarbonitrile]	−1.0000	+0.1667	56.5% and 56.49* %	29.8% and 29.77%	46.6% and 46.56* %	35.9% and 35.88%	47.3% and 47.33* %	0.33*	−0.32*	−1.91*	−0.75	−1.15	−0.29	−0.16	−2.51*	2.25
CC(NC(C)(C)C)C(=O)c1cccc(Cl)c1 (racemic) [bupropion, (±)-1-(3-chlorophenyl)-2-[(1,1-dimethylethyl)amino]-1-propanone]	−1.6571	−1.4222	46.6% and 46.62%	29.3% and 29.32%	42.9% and 42.86%	37.6% and 37.59%	43.6% and 43.61%	−0.11	−0.27	−1.31	−0.75	−1.10	−0.21	−0.33	−1.08	1.97
